This is an account of results in PMC11487390, “Design and Synthesis of 1,3-Diarylpyrazoles and Investigation of Their Cytotoxicity and Antiparasitic Profile” (International Journal of Molecular Sciences, 2024).

Where a name gives a salt, the structure may show the parent alone. Read-outs that look alike come from different tables or passages of the source.

For data set [1], the system named is T. b. brucei Squib 427 strain. Description: T. b. brucei growth assay (resazurin, 3 days). The data set is classed as cell-based, Trypanosoma brucei brucei. The protocol:
(§1) The MRC-5SV2 human lung fibroblast cell line was cultured in MEM + Earle’s salts-medium, supplemented with 2 mM L-glutamine, 16.5 mM NaHCO3, and 5% inactivated fetal calf serum. For evaluating the antileishmanial activity, the L. infantum MHOM/MA(BE)/67 strain was used. This strain was maintained in a Golden hamster (Mesocricetus auratus). Amastigotes were collected from the spleen of an infected donor hamster using differential centrifugation. Primary peritoneal mouse macrophages were used as host cells and were collected 2 days after peritoneal stimulation with a 2% potato starch suspension. For the intracellular T. cruzi assays, the Tulahuen CL2 strain was used that expresses β-galactosidase. The strain was maintained in MRC-5SV2 cells in MEM medium. The T. b. brucei Squib 427 strain or T. b. rhodesiense STIB-900 strain was used for screening against the extracellular African trypanosomes. The strains were maintained in Hirumi’s Modified Iscove’s medium-9 (HMI-9), supplemented with 10% inactivated fetal calf serum. All cultures and assays were performed at 37 °C with 5% CO2.
(§2) Compound stock solutions were prepared in 100% DMSO at 20 mM. The compounds were serially pre-diluted by robotic plate production (4-fold) in DMSO followed by a further (intermediate) dilution in demineralized water to assure a final in-test DMSO concentration of <1%. Identical test plates containing 10 µL of the different concentrations of each compound were produced for the different assays. For the cytotoxicity assays, 5 concentrations per compound were tested (64–16–4–1–0.25 µM). For the parasitic assays, 10 concentrations per compound were tested, ranging from 64 µM to 0.2 nM.
(§3) Parasite suspensions (1.5 × 10^4 T. b. brucei/well or 4 × 10^3 T. b. rhodesiense/well) in HMI-9 medium were exposed in a total volume of 200 µL to 10 µL of the compound dilutions Parasite growth was assessed fluorimetrically after 3 days of incubation by the addition of 50 µL resazurin per well. After 6 h (T. b. rhodesiense) or 24 h (T. b. brucei) at 37 °C, fluorescence was measured (λex 550 nm, λem 590 nm), from which viability and EC50 values could be determined.
On the technique in general: The colour change of resazurin is a common sign of viable cells or microbes.

Data set [2] relates to L. infantum MHOM/MA(BE)/67 strain. Description: L. infantum intracellular amastigote assay in PMM (Giemsa, 5 days). The data set is classed as cell-based, Leishmania infantum. The protocol:
as §1, §2
(§4) Primary peritoneal mouse macrophages (PMMs) were prepared in RPMI-1640 medium, supplemented with 2 mM L-glutamine, 16.5 mM NaHCO3, and 5% inactivated fetal calf serum. The macrophages are infected after 48 h with spleen-derived L. infantum amastigotes (3 × 10^4 PMM + 4.5 × 10^5 parasites/well). The compounds were added after 2 h of infection. After 5 days incubation, parasite burdens (mean number of amastigotes/macrophage) were assessed microscopically after staining with a 10% Giemsa solution and EC50 values were calculated.

For data set [3], the system named is primary mouse macrophages (PMMs). As to the kind of experiment: Cytotoxicity against primary peritoneal mouse macrophages (PMM). The data set is classed as cell-based. Particulars: Macrophage. The procedure: (§5) The series of final products (13–69) was investigated in vitro on the human fetal lung fibroblast cell line MRC-5 (Table 1) to assess cytotoxicity toward normal (i.e., non-malignant) human cells. […] As explained earlier, these are important pathogens for humans or cattle (T. b. brucei) and a persistent need for new therapeutics exists for these parasites. As a part of the antiparasitic tests, cytotoxicity against primary mouse macrophages (PMMs) was also evaluated. These murine cells serve as host cells for parasites in the L. infantum assay. Therefore, the murine macrophage assay not only offers additional cytotoxicological insight but is also essential to interpreting the readout of the L. infantum assay.
as §1, §4

Data set [4] is described as follows: Cytotoxicity assay, MRC-5SV2 cells, resazurin, 3 days. The data set is classed as cell-based. Particulars: human, MRC-5SV2 human lung fibroblast cells, MRC-5 cells, highest concentration 64 µM. The procedure:
as §5, §1, §2
Assays were performed in sterile 96-well microtiter plates, each well containing 10 µL of the watery compound dilutions together with 190 µL of MRC-5SV2 inoculum (1.5 × 10^5 cells/mL). Cell growth was compared to untreated control wells (100% cell growth) and medium-control wells (0% cell growth). After 3 days incubation, MRC-5 viability was assessed fluorimetrically after addition of 50 μL resazurin per well (final concentration of 10 µg mL^−1). After 4 h at 37 °C, fluorescence was measured (λex 550 nm, λem 590 nm). The results were expressed as % reduction in cell growth/viability compared to positive (100% growth–0% inhibition) and negative (0% growth–100% inhibition) control wells from which EC50 values (50% effective concentrations) were derived using an excel macro that calculates the interpolation of the concentrations corresponding to the flanking points, just above and just below 50% inhibition.

Data set [5] has as its system T. b. rhodesiense STIB-900 strain. Description: T. b. rhodesiense growth assay (resazurin, 3 days). In kind it is cell-based, Trypanosoma brucei rhodesiense. The protocol: as §1, §2, §3
The test system of data set [6] is Trypanosoma cruzi Tulahuen CL2 strain. As to the kind of experiment: Intracellular T. cruzi assay in MRC-5 cells (β-galactosidase/CPRG, 7 days). In kind it is cell-based. Particulars: intracellular in MRC-5 cells. The protocol:
as §1, §2
MRC-5 cells were infected in 96-well plates using a harvested T. cruzi inoculum (4 × 10^3 MRC-5 cells/well + 4 × 10^4 parasites/well) and exposed to 10 µL of the compound dilutions (200 µL/well total volume). Parasite growth determined after 7 days of incubation and compared to untreated infected controls following the addition of the substrate CPRG (chlorophenolred ß-D-galactopyranoside): 50 µL/well of a stock solution containing 15.2 mg CPRG + 250 µL Nonidet in 100 mL PBS. The absorbance was measured spectrophotometrically at 540 nm after 4 h incubation at 37 °C and EC50 values were calculated.

The mark [7] stands for this setting: Trypanosoma brucei, 72 h, 3 days, read-out: T. b. bruc. (EC50).
[8] abbreviates: Leishmania infantum, 120 h, amastigotes in PMM, 5 days, read-out: L. inf. (EC50).
The mark [9] stands for this setting: Trypanosoma brucei, RHODESIENSE, 72 h, 3 days, read-out: T. b. rhod. (EC50).
The mark [10] stands for this setting: Trypanosoma cruzi, TULAHUEN, MRC5, 168 h.
The mark [11] stands for this setting: Trypanosoma brucei, 72 h, read-out: T. b. bruc. (EC50, µM), 3 days.
The mark [12] stands for this setting: Leishmania infantum, 120 h, read-out: L. inf. (EC50, µM), amastigotes in PMM, 5 days.
[13] abbreviates: Trypanosoma brucei, RHODESIENSE, 72 h, read-out: T. b. rhod. (EC50, µM), 3 days.

In the case of `c1ccc(NCc2cn(-c3ccccc3)nc2-c2ccc3c(c2)OCCO3)cc1` [Compound 13, N-((3-(2,3-dihydrobenzo[b][1,4]dioxin-6-yl)-1-phenyl-1H-pyrazol-4-yl)methyl)aniline], the EC50 (usually the concentration at which the effect is half-maximal) was 31.4 µM in data set [1] (setting [7]); 10.8 µM in data set [2] (setting [8]); greater than 64 µM in data set [3]; 7.32 µM in data set [5] (setting [9]); 2.23 µM in data set [6] (setting [10]). This molecule also came in with a concentration giving a half-maximal response (EC50) at 3 days in data set [4] greater than 64 µM.
As for `Fc1ccc(NCc2cn(-c3ccccc3)nc2-c2ccc3c(c2)OCCO3)cc1` [Compound 14, N-((3-(2,3-dihydrobenzo[b][1,4]dioxin-6-yl)-1-phenyl-1H-pyrazol-4-yl)methyl)-4-fluoroaniline], the 50% effective concentration (EC50) in data set [1] (3 days, read-out: T. b. bruc. (EC50)) is 8.18 µM; in data set [1] (setting [7]), less than 10 µM; in data set [2] (setting [8]) it was less than 10 µM; in data set [2] (amastigotes in PMM, 5 days, read-out: L. inf. (EC50)), 6.96 µM; in data set [3], greater than 64 µM; in data set [5] (3 days, read-out: T. b. rhod. (EC50)), 6.35 µM. Moreover, in data set [5] (setting [9]), the EC50 was less than 10 µM. In addition, the EC50 at 3 days in data set [4] was greater than 64 µM.
For the molecule `CNC(=O)c1ccc(NCc2cn(-c3ccccc3)nc2-c2ccc3c(c2)OCCO3)cn1` [Compound 18, 5-(((3-(2,3-dihydrobenzo[b][1,4]dioxin-6-yl)-1-phenyl-1H-pyrazol-4-yl)methyl)amino)-N-methylpicolinamide], the 50% effective concentration (EC50) was greater than 64 µM in data set [1] (setting [7]); 9.19 µM in data set [2] (setting [8]); 32 µM in data set [3]; greater than 64 µM in data set [5] (setting [9]); greater than 64 µM in data set [6] (setting [10]). The molecule also yielded an EC50 at 3 days in data set [4] of 49.9 µM.
For the molecule `c1ccc(-n2cc(CNCCc3ccncc3)c(-c3ccc4c(c3)OCCO4)n2)cc1` [Compound 19, N-((3-(2,3-dihydrobenzo[b][1,4]dioxin-6-yl)-1-phenyl-1H-pyrazol-4-yl)methyl)-2-(pyridin-4-yl)ethan-1-amine hydrochloride], the EC50 came to 6.27 µM in data set [1] (setting [11]); 20.3 µM in data set [2] (setting [12]); 32 µM in data set [3]; 1.72 µM in data set [5] (setting [13]); 7.46 µM in data set [6] (setting [10]). Moreover, the EC50 at 3 days in data set [4] turned out to be 20.2 µM.
Regarding `c1ccc(-n2cc(CNCCc3ccccn3)c(-c3ccc4c(c3)OCCO4)n2)cc1` [Compound 21, N-((3-(2,3-dihydrobenzo[b][1,4]dioxin-6-yl)-1-phenyl-1H-pyrazol-4-yl)methyl)-2-(pyridin-2-yl)ethan-1-amine hydrochloride], the EC50 in data set [2] (setting [12]) is less than 10 µM; in data set [2] (read-out: L. inf. (EC50), amastigotes in PMM, 5 days), 5.06 µM; in data set [3] it was 32 µM; in data set [6] (setting [10]), less than 10 µM; in data set [6], 7.31 µM. In addition, the midpoint of the response in data set [4], the EC50 at 3 days, lay at 29.1 µM.
As to `COc1ccc(-c2nn(-c3ccccc3)cc2CN2CCOCC2)cc1` [Compound 66, 4-((3-(4-methoxyphenyl)-1-phenyl-1H-pyrazol-4-yl)methyl)morpholine hydrochloride], the 50% effective concentration (EC50) in data set [1] (setting [11]) amounted to 27.8 µM; in data set [2] (setting [12]), 34.6 µM; in data set [5] (setting [13]), 20.5 µM; in data set [6] (setting [10]), 22.4 µM. This molecule gave an EC50 at 3 days in data set [4] greater than 64 µM.
For the molecule `COc1ccc(-c2nn(-c3ccccc3)cc2COCc2ccc(F)cc2)cc1` [Compound 68, 4-(((4-fluorobenzyl)oxy)methyl)-3-(4-methoxyphenyl)-1-phenyl-1H-pyrazole], the EC50 amounted to 29.6 µM in data set [1] (setting [7]), 36.8 µM in data set [2] (setting [8]), 11.4 µM in data set [5] (setting [9]) and 5.33 µM in data set [6] (setting [10]). This molecule returned an EC50 at 3 days in data set [4] greater than 64 µM.
For `c1ccc(-n2cc(CNCCN3CCCC3)c(-c3ccc4c(c3)OCCO4)n2)nc1` [Compound 69, N-((3-(2,3-dihydrobenzo[b][1,4]dioxin-6-yl)-1-(pyridin-2-yl)-1H-pyrazol-4-yl)methyl)-2-(pyrrolidin-1-yl)ethan-1-amine dihydrochloride], the EC50 in data set [1] (setting [11]) was 22.7 µM; in data set [2] (setting [12]), greater than 64 µM; in data set [5] (setting [13]) it was 24.8 µM; in data set [6] (setting [10]), greater than 64 µM. Besides, the EC50 at 3 days in data set [4] was greater than 64 µM.
